According to PubChem BioAssay AID179 (DTP/NCI, 2004):
pEC50, pIC50: −log10 of the molar value. Where “and” joins values, the source holds several entries; their conditions need not be identical. Equal values may be shown once. Calls of active or inactive are those of the source.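 How the source made its calls: active means compounds giving half or more protection of infected cells from virus-caused growth loss, again on retest; inactive means the rest.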

Test system: CEM cells HIV-1 protection, formazan growth assay
Assay: NCI AIDS Antiviral Assay
Settings: for pIC50: measured here: growth of uninfected CEM cells
In short: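 Steps: treat uninfected and HIV-1-infected human CEM cells at five drug levels; quantify growth by soluble formazan; retest any compound reaching 50% protection; classify actives from the retest.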

## CCCNC1(C(N)=O)CCN(Cc2ccccc2)CC1
  pEC50: < 3.70
  pIC50: < 3.70

## CSC(SC)(C(=O)O)c1cc(-c2c(Cl)cccc2Cl)no1
  pEC50: < 4.09
  pIC50: 4.15

## N#C/C(=C\c1c(O)ccc2ccccc12)c1ccc([N+](=O)[O-])cc1
  pEC50: < 4.00
  pIC50: < 4.00

## Cc1ccc(/C=N/Nc2cc(C)c3cccc(C)c3n2)s1
  pEC50: < 3.70
  pIC50: 5.24

## COc1ccccc1-c1cc(=O)c2ccc(OC)c(OC)c2o1
  pEC50: < 3.70
  pIC50: 4.48

## NC(=O)c1csc(C2OC(COP(=O)(O)CP(=O)(O)OCC3OC(n4cnc5c(N)ncnc54)C(O)C3O)C(O)C2O)n1 (stereo unspecified)
  pEC50: < 3.82
  pIC50: 4.04

## Clc1cc(N/N=C(\c2ccccc2)c2ccccn2)ncn1
  pEC50: < 6.70
  pIC50: 7.20

## OC(C/C(=N\N1CCCCC1)c1cccs1)(C(F)(F)F)C(F)(F)F
  pEC50: < 3.70
  pIC50: 3.84

## COc1cc(/C=C(\C#N)c2ccccc2)cc(OC)c1
  pEC50: < 4.71
  pIC50: < 4.71

## O=c1c2cc3c(cc2[nH]c2ncccc12)OCO3
  pEC50: < 3.70
  pIC50: 3.84

## CN(C)C(=N)OCc1ccccc1
  pEC50: < 3.70
  pIC50: < 3.70

## COc1cc2c(cc1OC)C(Cc1ccc(OC)c(Oc3ccc(C[C@@H]4c5cc(OC)c(OC)cc5CCN4C)cc3)c1)N(C)CC2 (stereo partly specified)
  outcome: inactive

## Cc1ccc(C(=O)Nc2ccc(CP(=O)(O)O)cc2CP(=O)(O)O)cc1N
  pEC50: < 3.76
  pIC50: < 3.76

## C/C(CC(=O)Nc1ccc([N+](=O)[O-])cc1)=N/N=C(N)N
  pEC50: < 4.17
  pIC50: < 4.17

## CC(C)[C@@H]1CC[C@]2(COC(=O)CC(C)(C)CC(=O)O)CC[C@]3(C)[C@H](CC[C@@H]4[C@@]5(C)CC[C@H](OC(=O)CC(C)(C)CC(=O)O)C(C)(C)[C@@H]5CC[C@]43C)[C@@H]12
  pEC50: < 3.70
  pIC50: 5.01

## O=C(NCCNCCCNC(=O)c1cc(-c2ccccc2)nc2ccccc12)c1cccc(O)c1O
  pEC50: < 3.70
  pIC50: 5.49

## COc1ccc2[nH]c3c(c2c1)CCNC3CC(C)CCC=C(C)C (stereo unspecified)
  pEC50: < 4.00
  pIC50: 5.20

## COC1/C=C\OC2(C)Oc3c(C)c(O)c4c(O)c(c(C=Nc5ccccc5C)c(O)c4c3C2=O)NC(=O)/C(C)=C\C=C/C(C)C(O)C(C)C(O)C(C)C(OC(C)=O)C1C (stereo unspecified)
  pEC50: < 3.70
  pIC50: 4.53

## O=C(O)CNCc1c2ccccc2[n+]([O-])c2ccccc12
  outcome: inactive

## CC(C)=CCC[C@@H](C)C1=C(O)C(c2c(I)c(=O)n(C)c(=O)n2C)=C(C)C(=O)C1=O
  pEC50: < 3.70
  pIC50: 3.95

## C1=C(c2ccccc2)C(OC2Oc3ccccc3C=C2c2ccccc2)Oc2ccccc21 (stereo unspecified)
  pEC50: < 4.50
  pIC50: < 4.50

## O=C1NC(Cc2ccc([N+](=O)[O-])cc2)C(=O)N2CCCC12 (stereo unspecified)
  pEC50: < 3.70
  pIC50: < 3.70

## COCCCN1C(=O)C2c3[nH]c4ccccc4c3C3CCC(C(C)(C)C)CC3C2C1=O (stereo unspecified)
  pEC50: < 3.70
  pIC50: 4.50

## Cc1ccc2c(c1)C(=O)N1CSCC1C(=O)S2 (stereo unspecified)
  pEC50: < 3.60
  pIC50: 4.49

## O=[N+]([O-])c1ccc(CSCc2ccc([N+](=O)[O-])cc2)cc1
  pEC50: < 3.70
  pIC50: < 3.70

## CC(=O)Nc1ccc(C(=O)NN2C(=O)CSC2c2ccccc2)cc1 (stereo unspecified)
  pEC50: < 4.14
  pIC50: < 4.14

## CCOC(=O)C(C(=O)OCC)c1ccc([N+](=O)[O-])o1
  pEC50: < 3.88
  pIC50: 5.73

## CN(C)C(=S)Nc1nnc(Nc2ccccc2)s1
  outcome: inactive

## CCOc1ncnc2ccc(Cl)c(I)c12
  pEC50: < 4.11
  pIC50: < 4.11

## CN1CCc2sccc2C(c2ccccc2)O1 (stereo unspecified)
  pEC50: < 3.15
  pIC50: 3.56

## CC12CCC(=O)[C@@]1(C)CCCC2=O (stereo partly specified)
  outcome: inactive

## CC(C)[C@H]1CO[C@]2(C)[C@@H]3CN(Cc4ccccc4)C[C@@H]3C(=O)N12
  pEC50: < 3.67
  pIC50: < 3.67

## COC(=O)Cc1cc(=O)[nH]c2c1C(=O)CCC2
  outcome: inactive

## O=c1cc2ccccc2nn1-c1ccccc1Cl
  pEC50: < 3.58
  pIC50: 3.96

## CSc1cc(Cl)c(C)cc1S(=O)(=O)n1cc[nH]c1=O
  pEC50: < 3.70
  pIC50: < 3.70

## CCN(CC)CCNC(=O)c1nn(-c2ccc(C)cc2)c2c1N(C)S(=O)(=O)c1ccccc1-2
  pEC50: < 4.11
  pIC50: 4.25

## Cc1cc(C)n(C2=NS(=O)(=O)c3ccccc3N2C)n1
  pEC50: < 3.91
  pIC50: < 3.91

## CC(C)(C)OC(=O)NC(C)(C)C(=O)NCCC(=O)O
  pEC50: < 3.70
  pIC50: < 3.70

## CC1OC(OC2C(Oc3cc(O)c4c(c3)O[C@H](c3ccc(O)cc3)CC4=O)OC(CO)C(O)C2O)C(O)C(O)C1O (stereo partly specified)
  pEC50: < 3.70
  pIC50: < 3.70

## COc1cc(C(C#N)NNc2nc(C)cc(=O)[nH]2)cc(OC)c1OC (stereo unspecified)
  pEC50: < 3.98
  pIC50: < 3.98

## O=C(O)c1ccc([As](=O)(O)O)c([N+](=O)[O-])c1
  pEC50: < 3.70
  pIC50: < 3.70

## CC/C(=N/OC(=O)NC)c1ccccc1
  pEC50: < 3.70
  pIC50: < 3.70

## OC1=CN=C(c2ccccc2)Oc2ccccc21
  pEC50: < 4.80
  pIC50: < 4.80

## O=[N+]([O-])c1ccc(C=Cc2ccc(C(F)(F)F)cc2)cc1.[C-]#[O+].[C-]#[O+].[C-]#[O+].[Cr]
  outcome: inactive

## CCC1(N)COC(c2ccccc2)OC1 (stereo unspecified)
  pEC50: < 3.70
  pIC50: < 3.70

## O=C(N/C(=C\c1ccccc1O)C1NC(Cc2c[nH]c3ccccc23)C(=O)O1)c1ccccc1 (stereo unspecified)
  pEC50: < 4.00
  pIC50: 4.13

## COC(=O)C1=C(OC)C(C(=O)OC)[C@@]2(C)C(C(=O)OC)=C(OC)C(C(=O)OC)[C@@]12C (stereo partly specified)
  pEC50: < 3.38
  pIC50: < 3.38

## COc1cc([N+](=O)[O-])c(S(=O)(=O)O)cc1-[n+]1nc(C(=O)Nc2ccccc2)nn1-c1ccc([N+](=O)[O-])c(S(=O)(=O)[O-])c1
  pEC50: < 3.70
  pIC50: < 3.70

## C[C@H](CCCN1CCCCC1)[C@H]1CC[C@H]2[C@@H]3CC[C@@H]4C[C@H](O)CC[C@]4(C)[C@H]3CC[C@]12C
  pEC50: < 4.30
  pIC50: 5.74

## COc1ccc(-c2cc(=O)c3c(O)cccc3o2)cc1
  pEC50: < 3.70
  pIC50: < 3.70

## CCN(CC)CCNc1ccc(CO)c2oc3ccccc3c(=O)c12
  pEC50: < 3.44
  pIC50: 5.62

## O=c1cc(-c2ccc3c(c2)OCO3)oc2c(Cl)cc(Cl)cc12
  pEC50: < 4.00
  pIC50: 4.24

## O=S(O)CCCSSSCCCS(=O)O
  outcome: inactive

## O=S(=O)(SC1=NCCN1)c1ccc2ccccc2c1
  pEC50: 4.64
  pIC50: 4.53

## COC(=O)c1ccccc1/C=C1\Cc2c(C)cc(C)cc2C1=O
  outcome: inactive

## CCOc1ccc(N=Nc2ccc(/C=C/c3ccc(N=Nc4ccc(OCC)cc4)cc3S(=O)(=O)O)c(S(=O)(=O)O)c2)cc1
  pEC50: 4.52
  pIC50: < 3.70 and 3.71

## CCCCCCCCCCCCCCCCCCSCC12c3ccccc3C(c3ccccc31)C(COS(=O)(=O)O)C2COS(=O)(=O)O (stereo unspecified)
  pEC50: < 4.00
  pIC50: 4.19

## CCC[CH2][Sn]([CH2]CCC)=[N]S(=O)(=O)c1ccc(Cl)c(C)c1
  pEC50: < 6.70
  pIC50: 7.07

## C=C(C(=C)N1N=NC2C3CCC(C3)C21)N1N=NC2C3CCC(C3)C21 (stereo unspecified)
  pEC50: < 5.63
  pIC50: < 5.63

## Cc1cc2nc3n[nH]c(N)c3nc2cc1C
  pEC50: < 3.70
  pIC50: < 3.70

## Cc1ncc([N+](=O)[O-])n1CCN(C)C(=O)CCCn1ccnc1[N+](=O)[O-]
  pEC50: < 3.70
  pIC50: < 3.70

## COC(=O)C=Cc1ccc2nncnc2c1 (mixture of isomers)
  pEC50: < 3.70
  pIC50: 4.35

## COc1cc(NCc2ccc3nc(N)nc(N)c3c2C)cc(OC)c1OC (tested in a mixture with another compound)
  pEC50: < 5.35
  pIC50: 8.44

## CCN(CC)CCSc1c2cc(OC)ccc2nc2ccc(OC)cc12
  pEC50: < 3.70
  pIC50: 5.53

## N/C(=N\N=C\c1ccc(C(F)(F)F)cc1)NO
  pEC50: < 3.37
  pIC50: < 3.37

## Nc1c(N=Nc2ccc(/C=C/c3ccc(N=Nc4cc(S(=O)(=O)O)c5cccc(S(=O)(=O)O)c5c4N)cc3S(=O)(=O)O)c(S(=O)(=O)O)c2)cc(S(=O)(=O)O)c2cccc(S(=O)(=O)O)c12
  pEC50: 5.06
  pIC50: 4.11

## CCOc1snc(C(Cl)(Cl)Cl)c1Cl
  pEC50: < 3.70
  pIC50: < 3.70

## NC(CSC(c1ccccc1)(c1ccccc1)c1ccccc1)C(=O)O (stereo unspecified)
  pEC50: < 4.31
  pIC50: 6.09

## C/C(=N\NC(=S)N1CCN(c2ccccn2)CC1)c1cccc2cccnc12
  pEC50: < 4.34
  pIC50: 7.38

## COc1ccc(/C=C/C(=O)c2cc(Cl)cc(Cl)c2O)cc1OC
  pEC50: < 3.70
  pIC50: 5.98

## CCN(CC)CC1CCCCN1CC(=O)N1CC(C)C(=O)Nc2ccccc21 (stereo unspecified)
  pEC50: 4.46
  pIC50: 3.60

## C/C=C1\CN(C(=O)OC(C)(C)C)C1C(=O)OC(C)(C)C (stereo unspecified)
  pEC50: < 3.70
  pIC50: 4.07

## O=C(/C=C\c1ccccc1)Oc1ccc(/C=C2\CCC/C(=C\c3ccc(OC(=O)/C=C\c4ccccc4)cc3)C2=O)cc1
  pEC50: < 4.00
  pIC50: < 4.00

## Cc1nc(Nc2nc3ccccc3[nH]2)nc(Cl)c1CCCl
  outcome: inactive

## O=C(CSC1=NNC2(C(=O)N1)c1ccccc1-c1ccccc12)NC(=S)Nc1ccccc1
  pEC50: < 3.70
  pIC50: 4.59

## COc1ccc(C(=O)CC(=O)C(=O)Nc2ccc(C)c(C)c2)cc1
  pEC50: < 4.65
  pIC50: < 4.65

## CC(=O)OCC1=C(CCC#N)N2C(=O)C(NC(=O)Cc3cccs3)C2S(=O)C1 (stereo unspecified)
  pEC50: < 3.70
  pIC50: 4.02

## O=C(c1ccco1)N(C(=S)N1CCN(c2ccccn2)CC1)c1ccccc1
  pEC50: < 4.32
  pIC50: 4.33

## OC(O)(C(F)(F)F)C(F)(F)F
  pEC50: < 3.70
  pIC50: < 3.70

## CC(Nc1cccc(Cl)c1)c1ccncc1 (stereo unspecified)
  pEC50: < 3.70
  pIC50: 4.02

## COc1cc(C(=O)Oc2ccc3c(c2)OCO3)cc(OC)c1OC
  pEC50: < 3.70
  pIC50: < 3.70

## N#CNC1=NC(Cc2ccccc2)C(=O)N1CCc1c[nH]c2ccccc12 (stereo unspecified)
  pEC50: < 3.70
  pIC50: 4.50

## N#CC(C(=O)Nc1ccccc1)C1=C(Cl)C(=O)c2ccccc2C1=O (stereo unspecified)
  pEC50: < 3.60
  pIC50: 4.40

## O=C1c2c(O)ccc(O)c2C(=O)c2c(NCCCCO)ccc(NCCCCO)c21
  pEC50: 4.80
  pIC50: 4.76

## CCOc1ccc(NC(=O)C(=O)CC(=O)c2c(C)n([O-])c3ccccc3[n+]2=O)cc1
  pEC50: < 5.18
  pIC50: < 5.18
